These results are taken from patent US20260337208A1, “HETEROCYCLIC DERIVATIVES AS JANUS KINASE INHIBITORS” (CHIESI FARMACEUTICI S.P.A., priority 2022, published 2026).

A value given as a limit tells only on which side of the number the result lay.

One assay deals with T1, JAK3 (Homo sapiens, UniProt P52333).
T1 sequence (P52333 1-1124): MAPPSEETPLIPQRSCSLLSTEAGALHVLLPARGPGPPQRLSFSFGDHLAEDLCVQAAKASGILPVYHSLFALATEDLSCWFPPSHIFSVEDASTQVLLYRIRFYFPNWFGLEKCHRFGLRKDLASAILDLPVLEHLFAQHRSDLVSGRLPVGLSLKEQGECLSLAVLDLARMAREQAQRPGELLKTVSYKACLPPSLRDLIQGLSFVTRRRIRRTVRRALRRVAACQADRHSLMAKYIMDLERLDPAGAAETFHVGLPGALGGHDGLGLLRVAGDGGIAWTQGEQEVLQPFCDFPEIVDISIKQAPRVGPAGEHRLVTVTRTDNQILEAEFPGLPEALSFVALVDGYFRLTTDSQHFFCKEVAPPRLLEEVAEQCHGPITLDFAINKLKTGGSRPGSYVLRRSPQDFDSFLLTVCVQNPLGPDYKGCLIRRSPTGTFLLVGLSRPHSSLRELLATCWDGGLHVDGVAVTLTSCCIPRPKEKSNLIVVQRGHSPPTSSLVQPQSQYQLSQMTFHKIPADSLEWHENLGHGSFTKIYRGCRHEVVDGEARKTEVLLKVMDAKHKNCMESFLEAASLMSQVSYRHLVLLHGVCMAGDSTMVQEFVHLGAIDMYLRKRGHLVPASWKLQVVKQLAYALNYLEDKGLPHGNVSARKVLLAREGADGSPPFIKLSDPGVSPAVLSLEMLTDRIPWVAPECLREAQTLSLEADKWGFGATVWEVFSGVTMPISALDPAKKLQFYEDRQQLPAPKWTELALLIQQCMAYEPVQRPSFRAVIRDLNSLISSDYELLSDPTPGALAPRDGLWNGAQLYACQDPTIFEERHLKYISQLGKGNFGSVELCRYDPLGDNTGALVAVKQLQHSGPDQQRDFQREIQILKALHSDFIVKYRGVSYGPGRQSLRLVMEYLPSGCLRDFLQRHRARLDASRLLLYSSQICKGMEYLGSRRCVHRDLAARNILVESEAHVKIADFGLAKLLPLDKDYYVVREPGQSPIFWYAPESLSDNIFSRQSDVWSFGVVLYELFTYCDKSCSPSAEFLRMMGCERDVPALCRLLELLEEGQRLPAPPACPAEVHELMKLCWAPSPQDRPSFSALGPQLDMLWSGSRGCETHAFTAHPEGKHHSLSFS
The assay can be described thus: Biochemical potency on JAK3, TR-FRET (LANCE Ultra kinase assay). The conditions noted are these: ATP corresponding to Km; cell-free; read-out: JAK3 inhibitory activity (pIC50) (converted). As to the method:
(§1) The objective of this study was to assess the capability of compounds to inhibit all 4 JAK isoforms activity in a cell-free environment. Assay for JAK 1, JAK 2, JAK 3 and TYK2 were performed by Time-resolved fluorescence resonance energy transfer (TR-FRET) technology. It consists in the interaction of two labelled binding partners detected by the energy transfer from an excited donor to an acceptor dye and measurement of light emission by the acceptor dye. LANCE Ultra kinase assay was used. In presence of JAK 1, JAK 2, JAK 3 and TYK2 kinases and ATP (corresponding to Km), the ULight peptide substrate (LANCE Ulight-JAK-1 (Tyr1023) Peptide, Perkin Elmer, TRF0121) is phosphorylated. It is then captured by Eu-anti-phospho-substrate antibody (LANCE Eu-W1024 Anti-phosphotyrosine (PT66), Perkin Elmer, AD0069), which bring the Eu-chelate donor and ULight acceptor dyes into close proximity. Upon excitation at 320 nm, the Eu-chelate transfers its energy to the ULight dye, resulting in a fluorescent light emission at 665 nm.
(§2) Serial dilutions of compounds in pure DMSO are prepared from 10 mM DMSO stock solutions. Compounds were tested in 384-well plate for 11 consecutive 5-fold dilutions starting from 20 μM highest concentration (20 μM-[…]). 200 nL of compound were transferred from mother plate to test plate by using Mosquito (TTP labtech). Assay was performed in 384-well Perkin Elmer test plate in 20 μL assay volume (kinase reaction) and 40 μL total volume (stopping reagent and antibody detection reagents). In 10 μL of substrate solution (peptide+ATP) 30/50/20/10 nM of peptide and 20/0.7/0.2/12 μM of ATP were added for JAK 1, JAK 2, JAK 3 and TYK2 respectively. 10 μL of enzyme solution was added to kinase reaction at these concentrations: 0.15/0.083/0.025/0.144 ng/μL of JAK 1, JAK 2, JAK 3 and TYK2 respectively. After shaking and 1.5 h of incubation at r.t., 20 μL of Stop (10 μL EDTA) and Detection mixture (10 μL Europium-anti-phospho antibody, final: 0.5 nM) were added. Reading was performed after 1 h of incubation on a En Vision 2104 reader (Perkin Elmer).
(§3) Calculation of IC50 data, curves and QC analysis was performed by using Excel tool and GraphPadPrism software, v9. Briefly, individual concentration-effect curves are generated by plotting the logarithm of the tested concentration of tested compounds (X) vs. corresponding percent inhibition values (Y) using least squares (ordinary) fit. Best fit IC50 values are calculated using Log (inhibitor) vs. normalized response—Variable slope equation, where Y=100/(1+10^((LogIC50−X)*HillSlope)). QC criteria parameters (Z′, S:B, R2, HillSlope) were checked for every IC50 curve. Calculation of IC50 data, curves and QC analysis were made using Excel tools and GraphPadPrism software. QC criteria parameters: Z′≥0.5, Hill Slope range 0.5 to 5, S:B>2.
In general terms: Time-resolved FRET reads energy transfer from a long-lived donor to a nearby acceptor.

The target of another assay is JAK2 (Homo sapiens, UniProt O60674). The assay is described as follows: Biochemical potency on JAK2, TR-FRET (LANCE Ultra kinase assay). The conditions noted are these: ATP corresponding to Km; cell-free; read-out: JAK2 inhibitory activity (pIC50) (converted). As to the method:
as §1, §2, §3

The next assay concerns the target TYK2 (Homo sapiens, UniProt P29597). The assay is described as follows: Biochemical potency on Tyk2, TR-FRET (LANCE Ultra kinase assay). The conditions noted are these: ATP corresponding to Km; cell-free; read-out: TYK2 inhibitory activity (pIC50) (converted). As to the method:
as §1, §2, §3

In assay [1] the test system is pSTAT6 in BEAS-2B human cell line. The assay can be described thus: Inhibition of IL-13 induced pSTAT6 in BEAS. Type of assay: cell-based. The conditions noted are these: for IC50: Homo sapiens, BEAS-2B, 0.5 h, IL-13 trigger, 30 min, parent compound; for Fold difference parent vs predicted acid metabolite: ratio=IC50 predicted acid metabolite/IC50 ester. As to the method: BEAS-2B human cell line was seeded (100.000 cells/well) and incubated for 48 h at 37° C., 5% CO2, 95% humidity. Compounds were added and incubated 30 min followed by IL-13 as trigger. After 30 min incubation, cells were lysed and pSTAT6 determined by Fastscan phospho-stat6 (Tyr641) sandwich ELISA kit (cell signaling). Inhibitors were tested at 11 consecutive 5-fold dilutions starting from 10 μM (10 μM-[…]) in duplicate. Calculation of IC50 data, curves and QC analysis were made using Excel tools and GraphPadPrism software. QC criteria parameters: Z′≥0.35, Hill Slope range 0.5 to 5, S:B>2.

The next assay deals with JAK1 (Homo sapiens, UniProt P23458). The assay can be described thus: Biochemical potency on JAK1, TR-FRET (LANCE Ultra kinase assay). The conditions noted are these: ATP corresponding to Km; cell-free; read-out: JAK1 inhibitory activity (pIC50) (converted). The method, then:
as §1, §2, §3

JAK1, sequence (P23458 whole entry): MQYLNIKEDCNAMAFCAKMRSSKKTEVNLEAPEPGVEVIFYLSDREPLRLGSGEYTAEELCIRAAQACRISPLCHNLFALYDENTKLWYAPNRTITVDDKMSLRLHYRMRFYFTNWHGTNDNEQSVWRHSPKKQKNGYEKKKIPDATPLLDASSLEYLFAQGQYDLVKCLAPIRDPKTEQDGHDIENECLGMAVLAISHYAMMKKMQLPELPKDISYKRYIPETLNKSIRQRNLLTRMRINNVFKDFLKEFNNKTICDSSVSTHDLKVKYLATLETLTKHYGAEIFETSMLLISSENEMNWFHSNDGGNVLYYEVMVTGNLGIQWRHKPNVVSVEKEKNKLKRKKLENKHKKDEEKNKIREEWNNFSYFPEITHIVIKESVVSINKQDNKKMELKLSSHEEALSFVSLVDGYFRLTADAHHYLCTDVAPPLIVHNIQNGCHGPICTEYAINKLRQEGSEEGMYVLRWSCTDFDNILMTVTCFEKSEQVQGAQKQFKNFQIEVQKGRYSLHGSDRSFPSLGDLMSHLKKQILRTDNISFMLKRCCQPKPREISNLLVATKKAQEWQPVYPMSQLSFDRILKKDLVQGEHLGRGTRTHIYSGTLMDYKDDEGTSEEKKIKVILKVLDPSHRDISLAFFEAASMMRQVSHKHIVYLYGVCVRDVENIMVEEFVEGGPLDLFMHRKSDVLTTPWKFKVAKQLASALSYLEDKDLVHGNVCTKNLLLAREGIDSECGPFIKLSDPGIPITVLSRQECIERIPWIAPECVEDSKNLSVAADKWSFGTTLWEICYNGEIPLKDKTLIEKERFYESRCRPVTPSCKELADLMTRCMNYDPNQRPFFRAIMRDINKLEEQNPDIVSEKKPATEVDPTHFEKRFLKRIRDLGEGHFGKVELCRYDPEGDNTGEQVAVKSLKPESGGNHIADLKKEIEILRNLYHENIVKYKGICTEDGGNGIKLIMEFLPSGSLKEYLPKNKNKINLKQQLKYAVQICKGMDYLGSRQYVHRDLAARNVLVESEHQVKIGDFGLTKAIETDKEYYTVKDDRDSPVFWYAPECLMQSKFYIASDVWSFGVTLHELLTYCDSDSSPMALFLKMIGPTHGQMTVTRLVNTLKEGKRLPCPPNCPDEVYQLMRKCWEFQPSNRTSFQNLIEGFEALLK
TYK2, sequence (P29597 whole entry): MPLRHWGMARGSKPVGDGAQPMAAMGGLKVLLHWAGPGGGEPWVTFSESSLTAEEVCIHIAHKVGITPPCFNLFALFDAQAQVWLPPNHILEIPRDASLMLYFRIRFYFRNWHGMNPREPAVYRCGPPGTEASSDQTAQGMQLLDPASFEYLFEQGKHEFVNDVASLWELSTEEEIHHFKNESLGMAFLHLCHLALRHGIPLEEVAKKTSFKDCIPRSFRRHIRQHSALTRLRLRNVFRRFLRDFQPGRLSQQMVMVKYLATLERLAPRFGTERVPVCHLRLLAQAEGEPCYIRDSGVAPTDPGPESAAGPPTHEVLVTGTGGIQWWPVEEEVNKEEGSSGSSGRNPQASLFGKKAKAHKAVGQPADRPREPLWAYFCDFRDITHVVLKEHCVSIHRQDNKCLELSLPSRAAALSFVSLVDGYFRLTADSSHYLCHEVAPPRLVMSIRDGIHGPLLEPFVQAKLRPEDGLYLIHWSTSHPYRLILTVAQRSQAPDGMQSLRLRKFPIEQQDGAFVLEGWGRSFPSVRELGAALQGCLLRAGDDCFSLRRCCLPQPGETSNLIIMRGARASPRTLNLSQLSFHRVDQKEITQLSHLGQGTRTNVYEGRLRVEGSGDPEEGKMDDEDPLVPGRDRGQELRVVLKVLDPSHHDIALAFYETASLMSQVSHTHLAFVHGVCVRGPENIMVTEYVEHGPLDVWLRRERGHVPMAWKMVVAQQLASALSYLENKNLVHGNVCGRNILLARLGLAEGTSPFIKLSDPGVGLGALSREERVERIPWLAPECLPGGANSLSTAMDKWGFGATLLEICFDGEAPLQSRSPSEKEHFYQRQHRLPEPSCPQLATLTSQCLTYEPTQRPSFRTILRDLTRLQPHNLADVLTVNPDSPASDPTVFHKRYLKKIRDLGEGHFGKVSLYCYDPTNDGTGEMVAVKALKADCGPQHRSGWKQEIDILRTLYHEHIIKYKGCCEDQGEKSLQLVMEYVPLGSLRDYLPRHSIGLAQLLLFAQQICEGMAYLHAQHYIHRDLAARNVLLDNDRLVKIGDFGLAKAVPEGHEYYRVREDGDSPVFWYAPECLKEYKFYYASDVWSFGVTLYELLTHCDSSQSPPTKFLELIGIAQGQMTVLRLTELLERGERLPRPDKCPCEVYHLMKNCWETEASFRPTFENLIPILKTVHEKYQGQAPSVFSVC
JAK2, sequence (O60674 whole entry): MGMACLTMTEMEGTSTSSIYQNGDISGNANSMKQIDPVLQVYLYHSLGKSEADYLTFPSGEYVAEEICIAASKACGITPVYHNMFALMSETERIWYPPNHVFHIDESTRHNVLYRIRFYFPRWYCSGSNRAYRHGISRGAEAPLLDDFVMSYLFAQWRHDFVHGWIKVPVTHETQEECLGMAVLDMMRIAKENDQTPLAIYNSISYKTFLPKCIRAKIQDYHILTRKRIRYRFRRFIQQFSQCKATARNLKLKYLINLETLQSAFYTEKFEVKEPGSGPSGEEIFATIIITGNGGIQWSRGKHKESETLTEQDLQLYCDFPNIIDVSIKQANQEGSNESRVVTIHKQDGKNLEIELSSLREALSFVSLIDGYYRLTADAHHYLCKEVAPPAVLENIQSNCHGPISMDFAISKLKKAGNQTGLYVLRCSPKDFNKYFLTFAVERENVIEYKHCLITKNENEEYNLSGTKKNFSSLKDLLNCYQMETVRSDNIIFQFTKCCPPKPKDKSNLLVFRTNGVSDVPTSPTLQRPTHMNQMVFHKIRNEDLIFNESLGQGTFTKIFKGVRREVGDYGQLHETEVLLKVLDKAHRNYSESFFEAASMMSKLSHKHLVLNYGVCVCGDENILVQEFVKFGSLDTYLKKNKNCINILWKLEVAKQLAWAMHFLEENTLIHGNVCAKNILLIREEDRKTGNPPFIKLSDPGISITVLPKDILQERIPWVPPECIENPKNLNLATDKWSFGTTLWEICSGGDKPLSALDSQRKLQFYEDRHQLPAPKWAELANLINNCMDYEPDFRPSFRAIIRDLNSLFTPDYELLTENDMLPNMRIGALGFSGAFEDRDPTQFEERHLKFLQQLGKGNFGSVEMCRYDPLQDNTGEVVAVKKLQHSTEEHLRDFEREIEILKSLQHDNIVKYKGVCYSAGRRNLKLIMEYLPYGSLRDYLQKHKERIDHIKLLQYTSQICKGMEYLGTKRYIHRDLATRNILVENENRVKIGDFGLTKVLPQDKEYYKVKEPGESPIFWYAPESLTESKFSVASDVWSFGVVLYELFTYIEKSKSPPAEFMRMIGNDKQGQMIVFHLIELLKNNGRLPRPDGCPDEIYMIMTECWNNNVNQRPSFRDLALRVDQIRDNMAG

`COc1cc2c(cc1-n1nc(C(=O)NCCN3CCC(CC(=O)OCC(C)(C)O)CC3)c3cnc(-c4cnn5cccnc45)cc31)OCCN2` [Example 48, 2-hydroxy-2-methylpropyl 2-(1-(2-(1-(6-methoxy-3,4-dihydro-2H-benzo[b][1,4]oxazin-7-yl)-6-(pyrazolo[1,5-a]pyrimidin-3-yl)-1H-pyrazolo[4,3-c]pyridine-3-carboxamido)ethyl)piperidin-4-yl)acetate]: the IC50 on JAK3 was at most 5.01 nM; on JAK2 it was at most 5.01 nM; on TYK2 it was 5.01 to 50.1 nM; in assay [1], 5.01 to 50.1 nM; at JAK1 it was at most 5.01 nM. Also, the “Fold difference parent vs predicted acid metabolite” value in assay [1] was “kkkk (ratio≥200)”.

Turning to `COC(=O)Cc1cccc(CN(C)CCNC(=O)c2nn(-c3cc4c(cc3OC)NCCO4)c3cc(-c4cnn5cccnc45)ncc23)c1` [Example 37, methyl 2-(3-(((2-(1-(6-methoxy-3,4-dihydro-2H-benzo[b][1,4]oxazin-7-yl)-6-(pyrazolo[1,5-a]pyrimidin-3-yl)-1H-pyrazolo[4,3-c]pyridine-3-carboxamido)ethyl)(methyl)amino)methyl)phenyl)acetate], the IC50 on JAK3 is at most 5.01 nM; at JAK2, at most 5.01 nM; at TYK2, 5.01 to 50.1 nM; in assay [1] it was 5.01 to 50.1 nM; at JAK1, 5.01 to 50.1 nM.

As for `COc1cc2c(cc1-n1nc(C(=O)OCCCN(C)C)c3cnc(-c4cnn5cccnc45)cc31)SCCN2` [Example 7, 3-(dimethylamino)propyl 1-(6-methoxy-3,4-dihydro-2H-benzo[b][1,4]thiazin-7-yl)-6-(pyrazolo[1,5-a]pyrimidin-3-yl)-1H-pyrazolo[4,3-c]pyridine-3-carboxylate], the IC50 (at JAK3; on JAK2; on TYK2; in assay [1]; at JAK1) was at most 5.01 nM throughout.

In the case of `COc1cc2c(cc1-n1nc(C(=O)NCCN3CCC(C(=O)OCCCC#N)CC3)c3cnc(-c4cnn5cccnc45)cc31)OCCN2` [Example 54, 3-cyanopropyl 1-(2-(1-(6-methoxy-3,4-dihydro-2H-benzo[b][1,4]oxazin-7-yl)-6-(pyrazolo[1,5-a]pyrimidin-3-yl)-1H-pyrazolo[4,3-c]pyridine-3-carboxamido)ethyl)piperidine-4-carboxylate], the IC50 was at most 5.01 nM at JAK3; at most 5.01 nM at JAK2; 5.01 to 50.1 nM on TYK2; at most 5.01 nM in assay [1]; at most 5.01 nM on JAK1. The “Fold difference parent vs predicted acid metabolite” value in assay [1] is “kkkk (ratio≥200)”.

On to `COc1cc2c(cc1-n1nc(C(=O)NCCN3CCC(C(=O)OCC4(C#N)CC4)CC3)c3cnc(-c4cnn5cccnc45)cc31)OCCN2` [Example 53, (1-cyanocyclopropyl)methyl 1-(2-(1-(6-methoxy-3,4-dihydro-2H-benzo[b][1,4]oxazin-7-yl)-6-(pyrazolo[1,5-a]pyrimidin-3-yl)-1H-pyrazolo[4,3-c]pyridine-3-carboxamido)ethyl)piperidine-4-carboxylate], for which the IC50 is at most 5.01 nM at JAK3; at most 5.01 nM on JAK2; 5.01 to 50.1 nM on TYK2; at most 5.01 nM in assay [1]; at most 5.01 nM at JAK1. In addition, the “Fold difference parent vs predicted acid metabolite” value in assay [1] was “kkkk (ratio≥200)”.

Consider `COCCOC(=O)C1CCN(CCNC(=O)c2nn(-c3cc4c(cc3OC)NCCO4)c3cc(-c4cnn5cccnc45)ncc23)CC1` [Example 16, 2-methoxyethyl 1-(2-(1-(6-methoxy-3,4-dihydro-2H-benzo[b][1,4]oxazin-7-yl)-6-(pyrazolo[1,5-a]pyrimidin-3-yl)-1H-pyrazolo[4,3-c]pyridine-3-carboxamido)ethyl)piperidine-4-carboxylate], for which the IC50 is at most 5.01 nM on JAK3; at most 5.01 nM at JAK2; 5.01 to 50.1 nM on TYK2; at most 5.01 nM in assay [1]; at most 5.01 nM on JAK1. Moreover, in assay [1], the “Fold difference parent vs predicted acid metabolite” value was “kkkk (ratio≥200)”.

Consider `COCC(C)(C)OC(=O)C1CCN(CCNC(=O)c2nn(-c3cc4c(cc3OC)NCCO4)c3cc(-c4cnn5cccnc45)ncc23)CC1` [Example 5, 1-methoxy-2-methylpropan-2-yl 1-(2-(1-(6-methoxy-3,4-dihydro-2H-benzo[b][1,4]oxazin-7-yl)-6-(pyrazolo[1,5-a]pyrimidin-3-yl)-1H-pyrazolo[4,3-c]pyridine-3-carboxamido)ethyl)piperidine-4-carboxylate], for which the IC50 is at most 5.01 nM on JAK3; at most 5.01 nM at JAK2; 5.01 to 50.1 nM at TYK2; at most 5.01 nM in assay [1]; at most 5.01 nM on JAK1. In assay [1], the “Fold difference parent vs predicted acid metabolite” value was “kkkk (ratio≥200)”.

In the case of `COc1cc2c(cc1-n1nc(C(=O)NCCN3CCC(C(=O)OC4CN(C(C)C)C4)CC3)c3cnc(-c4cnn5cccnc45)cc31)OCCN2` [Example 57, 1-isopropylazetidin-3-yl 1-(2-(1-(6-methoxy-3,4-dihydro-2H-benzo[b][1,4]oxazin-7-yl)-6-(pyrazolo[1,5-a]pyrimidin-3-yl)-1H-pyrazolo[4,3-c]pyridine-3-carboxamido)ethyl)piperidine-4-carboxylate], the IC50 at JAK3 is at most 5.01 nM; on JAK2, at most 5.01 nM; at TYK2, 5.01 to 50.1 nM; in assay [1], 5.01 to 50.1 nM; on JAK1 it was at most 5.01 nM. Also, the “Fold difference parent vs predicted acid metabolite” value in assay [1] was “kkk (200>ratio≥100)”.
